Data reported in PMC11424896, “Overcoming drug resistance of cancer cells by targeting the FGF1/FGFR1 axis with honokiol or FGF ligand trap” (Frontiers in Pharmacology, 2024).

Biological target: T1, full-length FGFR1c (Homo sapiens, UniProt P11362)
T1 construct: gene FGFR1; full-length FGFR1c, pcDNA3.1, stably transfected in U2OS cells (U2OSR1)
Assay: Western blot of FGFR phosphorylation (pTyr653/[…]) in U2OSR1 cells
Format: cell-based
Settings: 30 µM honokiol pre-treatment, then 10 ng/mL FGF1 with heparin, 15 min; serum-starved cells

T1 sequence (P11362 22-822): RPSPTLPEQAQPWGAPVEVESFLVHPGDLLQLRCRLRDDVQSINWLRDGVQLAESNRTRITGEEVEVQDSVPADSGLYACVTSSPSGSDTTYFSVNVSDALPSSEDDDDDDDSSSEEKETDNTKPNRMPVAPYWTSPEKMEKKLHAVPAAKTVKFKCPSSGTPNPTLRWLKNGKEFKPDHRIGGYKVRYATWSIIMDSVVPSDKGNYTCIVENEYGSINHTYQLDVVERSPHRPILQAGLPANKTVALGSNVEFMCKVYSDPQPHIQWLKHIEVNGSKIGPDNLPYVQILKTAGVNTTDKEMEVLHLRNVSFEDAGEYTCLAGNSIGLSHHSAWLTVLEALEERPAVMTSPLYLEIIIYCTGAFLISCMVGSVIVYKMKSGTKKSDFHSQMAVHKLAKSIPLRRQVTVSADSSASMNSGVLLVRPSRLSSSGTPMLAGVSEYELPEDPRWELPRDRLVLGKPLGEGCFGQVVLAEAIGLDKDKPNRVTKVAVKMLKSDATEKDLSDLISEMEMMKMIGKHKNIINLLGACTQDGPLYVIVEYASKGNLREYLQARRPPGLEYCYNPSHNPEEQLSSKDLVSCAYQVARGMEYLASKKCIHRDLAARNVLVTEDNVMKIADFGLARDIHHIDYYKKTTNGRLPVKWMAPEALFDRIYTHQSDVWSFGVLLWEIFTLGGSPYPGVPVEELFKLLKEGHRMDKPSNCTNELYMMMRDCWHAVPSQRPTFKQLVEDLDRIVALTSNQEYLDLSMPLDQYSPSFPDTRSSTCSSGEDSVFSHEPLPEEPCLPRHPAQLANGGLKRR

## C=CCc1ccc(O)c(-c2ccc(O)c(CC=C)c2)c1 [honokiol]
  p-FGFR inhibition at 30 μM: in cells treated with honokiol, FGF1 did not induce activation of either FGFR
